# What was measured:
# cortisol = experiment: Plasma cortisol concentration in male dogs; assay type: in vivo; details: for plasma cortisol concentration: single intravenous dose of approximately 26 umoles/kg
# Text: (§1) This effect was reversible and was associated with a reduction in serum concentration of luteinizing hormone (LH).
# estradiol = experiment: Plasma estradiol concentration in male dogs; assay type: in vivo; details: for plasma estradiol concentration: single intravenous dose of approximately 26 umoles/kg
# Text: as §1
# testosterone [1] = experiment: Serum/plasma testosterone concentration in male dogs after oral or intravenous dosing; assay type: in vivo; details: for plasma concentration of testosterone: single intravenous dose of approximately 26 umoles/kg
# testosterone [2] = experiment: Plasma testosterone concentration in male rats after oral dosing; assay type: in vivo; details: for plasma testosterone concentration: four daily oral doses ≥100 mg/kg, 4 hours after the last dose
# Method: (§2) Four daily oral doses ≥100 mg/kg (S)-(-)-N-(α-Ethylbenzyl)-3-(3-carboxy)propoxy-2-phenylquinoline-4-carboxamide or (S)-(-)-N-(α-Ethylbenzyl)-3-carboxymethoxy-2-phenylquinoline-4-carboxamide reduced the plasma testosterone concentration of male rats when measured at 4 hours after the last dose. […] Reductions in plasma testosterone also occurred in male rats following single oral doses of 30 to 1000 mg/kg (S)-(-)-N-(α-Ethylbenzyl)-3-carboxymethoxy-2-phenylquinoline-4-carboxamide. Stimulation of testosterone production in vivo by a LH agonist (human chorionic gonadotropin) was not blocked by a single oral dose of 1000 mg/kg (S)-(-)-N-(α-Ethylbenzyl)-3-carboxymethoxy-2-phenylquinoline-4-carboxamide in male rats.
# LH = experiment: Plasma LH concentration in male rats after oral dosing; assay type: in vivo; details: four daily oral doses of 300 mg/kg, 4 hours after the last dose
# Method: as §2
# testosterone production = experiment: Stimulation of testosterone production in vivo by a LH agonist (human chorionic gonadotropin) in male rats; details: single oral dose of 1000 mg/kg
# Method: as §2
# androstenedione = experiment: Plasma androstenedione concentration in male dogs; assay type: in vivo; details: single oral dose of 300 mg/kg
# Text: as §1
# CYP17A1 = target: T1, CYP17A1 (Canis lupus familiaris, UniProt A0A8I3PR85); experiment: Enzyme inhibition in lysed dog Leydig cells; assay type: biochemical
# T1 construct: using lysed dog Leydig cells; from tissue; host or cells: lysate of primary Leydig cells isolated from dog testes
# T1 sequence (A0A8I3PR85 19-509): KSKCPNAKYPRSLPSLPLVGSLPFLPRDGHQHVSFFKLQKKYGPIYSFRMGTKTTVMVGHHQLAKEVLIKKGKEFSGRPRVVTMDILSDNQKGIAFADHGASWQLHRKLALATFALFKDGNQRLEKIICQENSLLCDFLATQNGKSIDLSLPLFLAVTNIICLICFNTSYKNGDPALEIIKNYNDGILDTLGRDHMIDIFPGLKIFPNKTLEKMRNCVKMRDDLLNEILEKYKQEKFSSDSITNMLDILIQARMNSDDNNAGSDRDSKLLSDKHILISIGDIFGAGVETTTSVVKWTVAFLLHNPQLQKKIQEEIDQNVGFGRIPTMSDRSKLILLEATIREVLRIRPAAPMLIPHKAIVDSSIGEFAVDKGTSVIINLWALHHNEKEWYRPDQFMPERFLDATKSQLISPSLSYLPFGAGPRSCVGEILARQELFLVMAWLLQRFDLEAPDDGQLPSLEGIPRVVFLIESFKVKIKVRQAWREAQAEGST
# Method: This effect occurred at incubation concentrations between 10 and 100 uM. […] Neither (S)-(-)-N-(α-Ethylbenzyl)-3-carboxymethoxy-2-phenylquinoline-4-carboxamide nor (S)-(-)-N-(α-Ethylbenzyl)-3-(3-carboxy)propoxy-2-phenylquinoline-4-carboxamide inhibited testosterone synthesis in Leydig cells isolated from the testis of the rat at the highest incubation concentration tested (300 uM). In contrast, (+)-(R)-3-[3-(4-Phenyl-4-N-methylacetamidopiperidin-1-yl)propyl]-3-(3,4-dichlorophenyl)-1-benzoylpiperidine, and (S)-(-)-N-(α-Ethylbenzyl)-3-[(4-methylpiperazin-1-yl)methyl]-2-phenylquinoline-4-carboxamide inhibited testosterone synthesis of isolated rat Leydig cells at incubation concentrations between 3 and 300 uM.
# reproductive organs [3] = experiment: Once daily oral administration for 1 month, reproductive organ effects in male rats; assay type: in vivo; details: 0.1 to 1000 mg/kg per day
# Method: (§3) Once daily oral administration of ((S)-(-)-N-(α-Ethylbenzyl)-3-hydroxy-2-phenylquinoline-4-carboxamide) for 1 month to male rats or for 2 weeks to male mice had no effect on the weights and/or histologic appearance of the reproductive organs. The daily doses ranged from 0.1 to 1000 mg/kg per day.
# testosterone [4] = experiment: Serum/plasma testosterone concentration in male dogs after oral or intravenous dosing; assay type: in vivo
# Method: The ((S)-(-)-N-(α-Ethylbenzyl)-3-hydroxy-2-phenylquinoline-4-carboxamide)-dependent changes in the testes and prostate of male dogs were associated with reductions in serum concentration of testosterone. Testosterone concentrations were reduced after either a single oral dose of 300 mg/kg (3 of 3 dogs) or 25 daily oral doses of 0.3 (1 of 3 dogs), 3 (2 of 3 dogs) or 300 mg/kg ((S)-(-)-N-(α-Ethylbenzyl)-3-hydroxy-2-phenylquinoline-4-carboxamide) (3 of 3 dogs). Serum testosterone was measured on blood samples obtained every 2 hours for 24 hours after the single dose and every 20 minutes for 4 hours beginning approximately 2 hours after the last of the 25 daily doses. The reductions in serum testosterone observed after one or 25 daily doses of 300 mg/kg ((S)-(-)-N-(α-Ethylbenzyl)-3-hydroxy-2-phenylquinoline-4-carboxamide) were reversible in all dogs (6 of 6) within one week after the cessation of dosing.
# as §1
# reproductive organs [5] = experiment: Once daily oral administration for 2 weeks, reproductive organ effects in male mice; assay type: in vivo; details: 0.1 to 1000 mg/kg per day
# Method: as §3
# luteinizing hormone (LH) = experiment: Serum luteinizing hormone concentration in male dogs; assay type: in vivo; details: single oral dose of 300 mg/kg
# Text: as §1
# testes and prostate = experiment: Once daily oral administration for 1 month, reproductive organ effects in male beagle dogs; assay type: in vivo
# Method: Once daily oral administration of ((S)-(-)-N-(α-Ethylbenzyl)-3-hydroxy-2-phenylquinoline-4-carboxamide) for 1 month to sexually mature male beagle dogs (12 - 16 months of age) produced decreases in the size and/or weight of testes and prostate. […] The incidence and severity of these changes were dose-related with 1 of 3, 2 of 3, 2 of 3, 6 of 6 and 3 of 3 male dogs affected at doses of 0.3, 3, 30, 300 or 1000 mg/kg per day, respectively.
# [6] = single oral dose of 300 mg/kg, male dogs
# [7] = once daily oral, 1 month, male beagle dogs
smiles,measurement,setting,value
"CC(=O)N(C)C1(c2ccccc2)CCN(CCC[C@]2(c3ccc(Cl)c(Cl)c3)CCCN(C(=O)c3ccccc3)C2)CC1 [(+)-(R)-3-[3-(4-Phenyl-4-N-methylacetamidopiperidin-1-yl)propyl]-3-(3,4-dichlorophenyl)-1-benzoylpiperidine]",plasma cortisol concentration,cortisol,did not lower
same,plasma estradiol concentration,estradiol,no effect
same,plasma concentration of testosterone,testosterone [1],reduced
CC[C@H](NC(=O)c1c(OCCCC(=O)O)c(-c2ccccc2)nc2ccccc12)c1ccccc1 [(S)-(-)-N-(α-Ethylbenzyl)-3-(3-carboxy)propoxy-2-phenylquinoline-4-carboxamide],plasma testosterone concentration,testosterone [2],reduced
CC[C@H](NC(=O)c1c(OCCCN2CCN(c3ccccc3OC)CC2)c(-c2ccccc2)nc2ccccc12)c1ccccc1 [(S)-(-)-N-(α-Ethylbenzyl)-3-[3-[4-(2-methoxyphenyl)piperazin-1-yl]propoxy]-2-phenylquinoline-4-carboxamide],plasma cortisol concentration,cortisol,did not lower
same,plasma estradiol concentration,estradiol,no effect
same,plasma concentration of testosterone,testosterone [1],reduced
CC[C@H](NC(=O)c1c(OCC(=O)O)c(-c2ccccc2)nc2ccccc12)c1ccccc1 [(S)-(-)-N-(α-Ethylbenzyl)-3-carboxymethoxy-2-phenylquinoline-4-carboxamide],plasma testosterone concentration,testosterone [2],reduced
same,plasma testosterone,testosterone [2]; single oral doses of 30 to 1000 mg/kg,Reductions
same,plasma LH concentration,LH,reduced
same,plasma concentration of testosterone,testosterone [1],reduced
same,stimulation of testosterone production in vivo by a LH agonist (human chorionic gonadotropin),testosterone production,not blocked
CC[C@H](NC(=O)c1c(O)c(-c2ccccc2)nc2ccccc12)c1ccccc1 [(S)-(-)-N-(α-Ethylbenzyl)-3-hydroxy-2-phenylquinoline-4-carboxamide],plasma concentration of androstenedione,androstenedione,reduced
same,inhibition of the enzyme (CYP17A1) in the testosterone synthetic pathway,CYP17A1,inhibition
same,weights and/or histologic appearance of the reproductive organs,reproductive organs [3],no effect
same,dogs with reduced serum testosterone concentration,testosterone [4]; 25 daily oral doses of 0.3 mg/kg,1 of 3
same,dogs with reduced serum testosterone concentration,testosterone [4]; 25 daily oral doses of 3 mg/kg,2 of 3
same,dogs with reduced serum testosterone concentration,testosterone [4]; 25 daily oral doses of 300 mg/kg,3 of 3
same,dogs in which reductions in serum testosterone were reversible,"testosterone [4]; after one or 25 daily doses of 300 mg/kg, within one week after cessation of dosing",6 of 6
same,dogs with reduced serum testosterone concentration,testosterone [4]; single oral dose of 300 mg/kg,3 of 3
same,reversibility of decrease in serum testosterone,testosterone [4]; [6],reversible
same,serum concentration of testosterone,testosterone [4]; [6],rapid and marked decrease
same,weights and/or histologic appearance of the reproductive organs,reproductive organs [5],no effect
same,serum concentration of luteinizing hormone (LH),luteinizing hormone (LH),reduction
same,plasma concentration of cortisol,cortisol; single oral dose of 300 mg/kg,no effect
same,male dogs affected (testes and prostate changes),"testes and prostate; 0.3 mg/kg per day oral, 1 month",1 of 3
same,male dogs affected (testes and prostate changes),"testes and prostate; 3 mg/kg per day oral, 1 month",2 of 3
same,male dogs affected (testes and prostate changes),"testes and prostate; 30 mg/kg per day oral, 1 month",2 of 3
same,male dogs affected (testes and prostate changes),"testes and prostate; 300 mg/kg per day oral, 1 month",6 of 6
same,male dogs affected (testes and prostate changes),"testes and prostate; 1000 mg/kg per day oral, 1 month",3 of 3
same,reversibility of testes and prostate changes,testes and prostate; male beagle dogs,demonstrated
same,histologic evaluation of prostate,testes and prostate; [7],diffuse atrophy of the prostate gland
same,histologic evaluation of testes,testes and prostate; [7],"degeneration of the seminiferous epithelium of the testes with depletion of spermatogonia, spermatocytes and spermatids"
same,size and/or weight of testes and prostate,"testes and prostate; once daily oral, 1 month, sexually mature male beagle dogs",decreases
same,plasma concentration of estradiol,estradiol; single oral dose of 300 mg/kg,no effect
same,plasma concentration of testosterone,testosterone [1],reduced
same,duration of decrease in serum testosterone,"testosterone [1]; single oral dose of 300 mg/kg, post-dose",at least 24 hours
